Data from PMC2962730 (Journal of neurochemistry, 2010).
Numbering of substitutions follows the chain as printed.

Tests used:
[1] = biological target: T1, hVAChT F392A (Homo sapiens, UniProt Q16572, F392A); assay: [3H]vesamicol saturation binding; settings: pH 7.4
T1 sequence (Q16572 1-532 F392A): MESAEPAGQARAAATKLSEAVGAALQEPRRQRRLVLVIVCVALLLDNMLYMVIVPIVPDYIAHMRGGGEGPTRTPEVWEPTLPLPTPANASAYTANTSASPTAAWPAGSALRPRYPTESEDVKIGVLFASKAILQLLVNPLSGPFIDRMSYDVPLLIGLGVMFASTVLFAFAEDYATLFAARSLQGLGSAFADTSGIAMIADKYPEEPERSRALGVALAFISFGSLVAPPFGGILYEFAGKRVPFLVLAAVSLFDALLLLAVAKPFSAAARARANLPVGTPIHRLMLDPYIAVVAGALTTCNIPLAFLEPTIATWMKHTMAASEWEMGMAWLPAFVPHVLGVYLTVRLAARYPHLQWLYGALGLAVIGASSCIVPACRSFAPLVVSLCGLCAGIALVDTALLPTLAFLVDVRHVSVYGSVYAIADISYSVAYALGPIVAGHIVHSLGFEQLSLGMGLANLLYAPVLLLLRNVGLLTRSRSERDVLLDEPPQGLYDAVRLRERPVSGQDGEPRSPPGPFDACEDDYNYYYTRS

[2] = biological target: T2, hVAChT wild-type (Homo sapiens, UniProt Q16572); assay: [3H]vesamicol saturation binding; settings: WT hVAChT; pH 7.4; per mg postnuclear supernatant
T2 sequence (Q16572 1-532): T1 sequence (Q16572 1-532 F392A) with A392F

[3] = biological target: T3, hVAChT M316A (Homo sapiens, UniProt Q16572, M316A); assay: [3H]ACh transport; assay type: biochemical
T3 sequence (Q16572 1-532 M316A): T1 sequence (Q16572 1-532 F392A) with M316A, A392F

[4] = biological target: T4, hVAChT C391A (Homo sapiens, UniProt Q16572, C391A); assay: [3H]ACh transport; assay type: biochemical
T4 sequence (Q16572 1-532 C391A): T1 sequence (Q16572 1-532 F392A) with C391A, A392F

[5] = biological target: T5, hVAChT C388A (Homo sapiens, UniProt Q16572, C388A); assay: ACh equilibrium binding by competition against [3H]vesamicol
T5 sequence (Q16572 1-532 C388A): T1 sequence (Q16572 1-532 F392A) with C388A, A392F

[6] = biological target: T5, hVAChT C388A; assay: [3H]ACh transport; assay type: biochemical
[7] = read-out: KM, Michaelis-Menten constant for ACh transport, pH 7.4

Vmax/Bmax, ACh transport normalized to Bmax ([3]; pH 7.4)	Km [3, 7]	ACh transport faster than wild-type ([4]; C391A hVAChT vs wild-type)	Vmax/Bmax, ACh transport normalized to Bmax ([4]; C391A hVAChT, pH 7.4)	Km ([4]; read-out: KM, Michaelis-Menten constant for ACh transport, C391A hVAChT, pH 7.4)	Kd [5]	FHA, fraction of the ACh sites that have high affinity ([5]; C388A hVAChT, pH 7.4)	Vmax/Bmax, ACh transport normalized to Bmax ([6]; pH 7.4)	Km [6, 7]	Compound	Bmax, maximal specific [3H]vesamicol binding (VAChT expression level) [1]	Bmax, maximal specific [3H]vesamicol binding (VAChT expression level) [2]
–	–	–	–	–	–	–	–	–	O[C@@H]1CCCC[C@H]1N1CCC(c2ccccc2)CC1 (racemic) [vesamicol, ( )-trans-2-(4-phenylpiperidino)cyclohexanol]	93 ± 5 pmol/mg	50 ± 1 pmol/mg
8.2 ± 1.0 min⁻¹	1500 ± 300 µM	about 2 times	15 ± 2 min⁻¹	1800 ± 300 µM	17 ± 4 mM	0.88 ± 0.08	12 ± 1 min⁻¹	2300 ± 500 µM	CC(=O)OCC[N+](C)(C)C [ACh, acetylcholine]	–	–
